Experimental data: patent US11850280B1 (priority 2020, dated 2023)

Conditions: in vivo

Ivermectin
blood plasma levels versus dosage: dose-response relationship
